From US7598028B2, “Compositions and methods for detecting and treating prostate disorders” (The Regents of the University of Michigan, priority 2006, dated 2009) come the findings set out here.

Some results are limits rather than exact numbers.

Holding throughout (assay type): cell-based, human
Test [1] concerns ERK ½. Description: Western blot, ERK phosphorylation in N15C6 cells. The method, then: Western blot analysis Cells were lysed, proteins resolved by electrophoresis and electroblotting was carried out as described previously (Chaib H, et al., (2001) Cancer Res. 61, 2390-2394; incorporated herein by reference in its entirety). Proteins were detected using antibodies against phospho-ERK½ (Cell Signaling no. 9101), total ERK½ (Cell Signaling, no. 9102), CXCR4 (Abcam no. ab2074), CXCR7 (Abcam #Ab12870, Abcam #Ab12871, Abcam #38089), phospho-p65 (Rockland no. 100-401-264), total p65 (Rockland no. 100-4165), or beta-actin (Santa Cruz no. sc-1615), in conjunction with an ECL detection system.
Western Blot Analysis. Cells were lysed, proteins resolved by electrophoresis, and electroblotting was carried out as described previously (see, e.g.; Chaib H, et al., 2001 Cancer Res. 61, 2390-2394; incorporated herein by reference in its entirety). Proteins were detected using antibodies against phospho-ERK½ (Cell Signaling #9101), total ERK½ (Cell Signaling #9102), CXCR4 (Abcam #ab2074), Elk-1 (Cell Signaling #9182), Phospho Elk-1 (Cell Signaling #9181), or beta-actin (Santa Cruz #sc-1615), in conjunction with an ECL detection system.
(§1) Western Blot and Protein Analysis. Cells were lysed, proteins resolved by electrophoresis, and electroblotting was carried out as described previously except that 20 ug protein was electrophoresed per gel lane for N15C6 cells and 100 ug protein for LNCaP cells (see, e.g., Begley L, et al., Aging Cell. 2005 December; 4(6):291-8; Begley L A, et al., J Biol. Chem. 2007 Sep. 14; 282(37):26767-74; each herein incorporated by reference in their entireties). Proteins were detected using antibodies against phospho-ERK½ (Cell Signaling #9101), total ERK½ (Cell Signaling, #9102), phospho-p65, (Rockland #100-401-264), total p65 (Rockland #100-4165), STAT3 (9139), phospho-STAT3 (9138), beta-actin (Santa Cruz #sc-1615), or tubulin (Upstate, #DM1A) in conjunction with an ECL detection system. Secondary antibodies included goat anti-rabbit (Cell Signaling, #7074) and goat anti-mouse (Santa Cruz, #SC-2005), and both were used at a 1:5000 concentration. Immunoblots shown are representative of triplicate experiments. Densitometric quantitation of immunoblot films was accomplished by scanning the original films and converting the .tiff files to grayscale. Images were inverted, and mean band intensities were measured using ImageJ (www, followed by, .nih.gov). The mean intensity of adjacent background was also measured for each band and subtracted from band intensity.
On the technique in general: Immunoblotting shows a protein as a band on a membrane.

The test system of test [2] is N15C6 prostate epithelial cells. In words: Proliferation assay (cell counts), N15C6. The method, then: Proliferation assays. Cellular proliferation was assessed after plating cells at 50 000 cell/well in triplicate in six-well plates and counting cells after 24 and 96 h of incubation in complete media, serum-free media or serum-free prostate stromal fibroblast conditioned media, as described previously (Macoska J A, et al., (2004) Cancer Genet. Cytogenet. 154, 36-43; incorporated herein by reference in its entirety). Averages and standard deviations of cell number were calculated for each time point under each media condition. To assess the effects of exogenous CXCL12 on cellular proliferation, recombinant human SDF1 alpha/CXCL12 (R & D Systems, 350-NS) was added at the desired concentration in 1 mL SF HIE (or 1 mL SF HIE alone for control) to each well. The cells were counted at 24 and 96 h growth and re-fed at 48 and 72 h growth. Cell counts were normalized to 50 000 cells at 24 h to account for any plating discrepancies.
Proliferation Assays. Cellular proliferation was assessed after plating cells at 50,000 cell/well in triplicate in six well plates and counting cells after 24 and 96 hours of incubation as described previously (see, e.g., Macoska J A, et al., 2004 Cancer Genet. Cytogenet. 154, 36-43; incorporated herein by reference in its entirety). To assess the effects of exogenous CXCL12 on cellular proliferation, recombinant human SDF1 alpha/CXCL12 (R&D Systems, 350-NS) was added at the desired concentration in 1 ml SF HIE (or 1 ml SF HIE alone for control) to each well. The cells were re-fed at 48 and 72 hours growth and counted at 24 and 96 hours growth. Cell counts were normalized to 50,000 cells at 24 hours to account for any plating discrepancies. Averages and standard deviations of cell number were calculated for each time point under each media condition. Experiments utilizing U0126 were performed as above, except that cells were treated after plating for 2 hours with either DMSO (vehicle) or 5 uM U0126 before addition of CXCL12. Cells were maintained in media containing DMSO or U0126 for the entirety of the experiment. For the antibody blockade experiments, cells were plated at 10,000 cells per well in triplicate in 24 well dishes and pre-incubated with mouse IgG2aκ (BD Pharmingen 555571) or mouse anti-CXCR4 (BD Pharmingen 555971) at 1 ug/ml for 1 hour prior to CXCL12 addition. Cells were maintained in media containing appropriate antibodies for the entirety of the experiment, and cells were counted at 24 and 96 hours as above.
(§2) Proliferation Assays. Cellular proliferation was assessed after plating cells at 50,000 cell/well in triplicate in six well plates and counting cells after 24 and 96 hours of incubation as described previously (see, e.g., Begley L, et al., Genes Chromosomes Cancer. 2006 February; 45(2): 136-46; herein incorporated by reference in its entirety). To assess the effects of exogenous CXCL5 on cellular proliferation, recombinant human CXCL5 (R&D Systems, 254-X) was added at the desired concentration in 2 ml SF media (or 2 ml SF media alone for control) to each well. The cells were re-fed at 24 hours growth and counted at 24 and 96 hours growth. Cell counts were normalized to 50,000 cells at 24 hours to account for any plating discrepancies. Averages and standard deviations of cell number were calculated for each time point under each media condition. For the antibody blockade experiments, 10,000 cells per well were plated in triplicate in 24 well dishes and preincubated with mouse anti-human CXCR2 (Biosource AHR1532X) or mouse antihuman CXCR4 (BD Pharmingen 555971) at 1 ug/ml for 1 hour prior to CXCL5 addition. Cells were maintained in media containing appropriate antibodies for the entirety of the experiment and were counted at 24 and 96 hours as above.

The test system of test [3] is PC3 prostate epithelial cells. Description: Proliferation assay, PC3. The note with it: 0.001-1 nM CXCL5, p<0.05. As to the method: as §2
In test [4] the test system is STAT3. In words: Western blot, STAT3 phosphorylation in LNCaP cells. The conditions noted are these: sub-nanomolar or nanomolar levels of CXCL5. As to the method: as §1

`N#CC(=C(/N)Sc1ccccc1N)/C(C#N)=C(\N)Sc1ccccc1N` [U0126]: the “effect on CXCL12-stimulated ERK ½ phosphorylation” value in test [1] (0.1 uM or 1.0 uM U0126, 1 pM CXCL12) is on record as “diminished”; in test [1] (1 uM U0126 pre-treatment, 10 pM or 1000 pM CXCL12) it was “reduces”; in test [1] (5 uM U0126 pre-treatment, 10 pM or 1000 pM CXCL12), “ablates”. For the same compound, in test [1] (1.0 uM or 5.0 uM U0126, 1 pM, 10 pM or 1000 pM CXCL12), the “effect on CXCL12-stimulated ERK phosphorylation” value is listed as “greatly diminishes”. Further, the “effect on proliferative response to CXCL12” value in test [2] (1.0 uM U0126 with 1 pM, 10 pM or 100 pM CXCL12, compared to DMSO) is “nearly ablated”; in test [2] (5.0 uM U0126 in 0.05% DMSO), “nearly ablated”. The “effect of U0126 on the effect of CXCL5 (anticipated)” value in test [2] (stated as anticipated) is recorded as “will inhibit”. Also, the “cellular proliferation in the absence of CXCL12” value in test [2] (treatment with U0126) was “diminished”.

As to “CXCL5: recombinant human CXCL5 (R&D Systems, 254-X), CXC-type chemokine”, the “proliferation versus SF media alone” value in test [3] is reported as “significantly higher”. Besides, the “ERK ½ phosphorylation” value in test [1] (10 pM, 100 pM or 1 nM CXCL5) was “rapidly and transiently phosphorylated”. For the same compound, the “activation of STAT3” value in test [4] was “not observed”. For the same compound, in test [2], the “CXCL5 concentrations that inhibited proliferation” value is more than 100 µM and the “CXCL5 concentrations that stimulated proliferation” value was in the range of 1 to 10 pM. Also, in test [2] (0.001-1 nM CXCL5, p<0.05), the “proliferation versus SF media alone” value is given as “significantly higher”. For the same compound, the “proliferation in response to CXCL5 compared with CXCL12” value in test [2] (FIG. 8) is given as “equivalently”. The “cell proliferation compared to serum-free (SF HIE) media alone” value in test [2] (add back of exogenous chemokine, 96 hours) was “stimulate”.
